Measured values published in EP0186365A2, “Preparation of alcohols” (UNITED KINGDOM ATOMIC ENERGY AUTHORITY, priority 1984, dated 1986).

Key:
YADH [1] = target: T1, YADH (Saccharomyces cerevisiae, UniProt P00330); assay: Example 3 (ii): inhibition of soluble YADH after pre-incubation with aldehyde; type: biochemical, yeast; conditions: soluble enzyme; 2 mM aldehyde, 60 min, 22 °C, then dialysis; assayed with trans-cinnamaldehyde (5 mM)
T1 sequence (P00330 1-348): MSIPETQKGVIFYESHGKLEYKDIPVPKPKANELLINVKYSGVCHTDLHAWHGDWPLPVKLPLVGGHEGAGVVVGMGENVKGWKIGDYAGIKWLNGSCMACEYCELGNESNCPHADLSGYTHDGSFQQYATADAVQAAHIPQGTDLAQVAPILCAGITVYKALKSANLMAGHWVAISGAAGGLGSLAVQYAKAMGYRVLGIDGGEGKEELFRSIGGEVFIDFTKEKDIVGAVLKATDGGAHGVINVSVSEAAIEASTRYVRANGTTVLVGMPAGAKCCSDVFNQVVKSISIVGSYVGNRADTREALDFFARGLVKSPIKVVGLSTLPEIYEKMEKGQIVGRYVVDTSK
Method: By way of comparison, stock enzyme solution (800 µ1; 0.2 mg protein/ml) was incubated with cinnamaldehyde (200 µ1; 10 mM). This also gave a final aldehyde concentration of 2 mM and a protein concentration of 0.16 mg/ml. The reaction mixture was incubated at 22 (+2)^OC for 60 min with continuous gentle agitation. After incubation, the soluble enzyme was dialysed against coupling buffer (30 ml; 0.lM) at 4°C for 21/2 hours with one change of buffer. Enzyme activity was assayed immediately after dialysis using trans-cinnamaldehyde (5 mM) as assay substrate with a protein concentration of 0.2 mg/ml.

YADH [2] = target: T1, YADH; assay: Inhibition/inactivation of YADH in solution by incubation with aldehyde; type: biochemical, yeast
Text: The enzymatic reduction of aldehydes may, however, present a serious problem due to the aldehyde, whilst being a substrate for the enzyme, being a potent irreversible inhibitor.

[3] = target: T2, Horse liver alcohol dehydrogenase or HLADH (Equus caballus, UniProt P00327); assay: Example 4: activity of immobilised HLADH in the reduction of aldehydes (NADH absorbance decrease at 380 nm); type: biochemical; conditions: aldehyde as substrate (2mM), NADH (1mM), pH 7.0, 22 °C, initial rate over 2 minutes
T2 construct: whether it is derived from yeast (i.e. is a YADH) from horse liver (HLADH), or from another source; from tissue; host or cells: horse liver
T2 sequence (P00327 whole entry): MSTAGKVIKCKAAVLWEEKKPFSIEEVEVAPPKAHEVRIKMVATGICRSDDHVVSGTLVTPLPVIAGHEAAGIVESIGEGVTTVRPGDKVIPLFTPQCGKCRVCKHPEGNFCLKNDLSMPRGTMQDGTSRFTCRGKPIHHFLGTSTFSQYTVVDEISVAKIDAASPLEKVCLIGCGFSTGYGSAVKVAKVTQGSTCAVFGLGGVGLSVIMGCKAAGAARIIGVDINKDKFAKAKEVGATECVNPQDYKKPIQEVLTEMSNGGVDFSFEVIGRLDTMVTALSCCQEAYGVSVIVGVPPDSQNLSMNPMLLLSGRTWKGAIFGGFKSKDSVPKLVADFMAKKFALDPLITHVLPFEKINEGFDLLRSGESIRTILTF
Method: Horse liver alcohol dehydrogenase or HLADH (50 mg; 1 U/mg) was reacted with swelled CNBr-activated Sepharose 4B (Registered Trade Mark) beads (0.8 g).
The activity of the immobilised enzyme in the reduction of aldehydes to alcohols was determined in coupling buffer (0.1 M; pH 7.0) at 22 (+2)°C as the initial rate of decrease in absorbance at 380 nm over a 2 minute time period using NADH (lmM) and aldehyde (2mM).

immobilised HLADH = target: T3, immobilised HLADH (Equus caballus, UniProt P00327); assay: Example 5: inhibition of immobilised HLADH by aldehydes; type: biochemical, horse; conditions: (b) immobilised HLADH; assay using the aldehyde used in pre-incubation
T3 construct: whether it is derived from yeast (i.e. is a YADH) from horse liver (HLADH), or from another source; from tissue; host or cells: horse liver
T3 sequence (P00327 whole entry): as above
Method: (§1) In order to test the inhibition of the immobilised enzyme by aldehyde, the beads (50 - 60 µl) were incubated with trans-cinnamaldehyde ([…]; 10 mM) and a coupling buffer (3.95 ml; pH 7.0). This gave a final aldehyde concentration of 2 mM and a protein concentration of 0.16 mg/ml. The reaction mixture was incubated at 22 (+2)°C for 60 min with continuous gentle agitation. The immobilised enzyme was washed three times in coupling buffer (10 ml) at 22 (+2)C and resuspended in eight times of its original volume in coupling buffer. Enzyme activity was assayed immediately after washing using trans-cinnamaldehyde (5 mM) as assay substrate with a protein concentration of 0.2 mg/ml.
Horse liver alcohol dehydrogenase or HLADH (50 mg; 1 U/mg) was reacted with swelled CNBr-activated Sepharose 4B (Registered Trade Mark) beads (0.8 g). Approximately 90% of the enzyme was thus immobilised.
The inhibition of the immobilised enzyme (prepared as in Example 4) by aldehydes was tested and compared with the soluble enzyme as described in Example 3. The results were as follows:
(a) assaying using trans-cinnamaldehyde following pre-incubation using a different aldehyde
(b) assaying using the aldehyde used in pre-incubation

YADH [4] = target: T1, YADH; assay: Example 3 (i): inhibition of immobilised YADH after pre-incubation with aldehyde; type: biochemical, yeast; conditions: immobilised enzyme; 2 mM aldehyde, 60 min, 22 °C, then washing; assayed with trans-cinnamaldehyde (5 mM)
Method: YADH (15 mg; 200U/mg) was reacted with swelled CNBr-activated Sepharose 4B (Registered Trade Mark) beads (0.4 g; ex Pharmacia) and coupling carried out in sodium phosphate buffer (0.1M; pH 7.0) containing KCl (0.5 M) for 18 hours at 4°C. Approximately 90% of the enzyme was thus immobilised.
as §1

[5] = solution of the enzyme incubated with 5 mM aldehyde

| Structure (SMILES) | activity [3] | further results |
| --- | --- | --- |
| O=CC=Cc1ccccc1 [cinnamaldehyde] | – | inhibition at 2000 µM (YADH [1]): 90%; time to 50% inhibition (YADH [2]; [5]): 12 min; time to total inhibition (YADH [2]; [5]): about 30 minutes |
| OCC=Cc1ccccc1 [cinnamyl alcohol] | – | inhibitory effect (YADH [2]; even at 8 mM): no inhibitory effect |
| CC(C)=CCCC(C)=CC=O [citral] | 0.91 micromoles NADH/min/mg protein | – |
| CC(C)=CCCC(C)CC=O (centres unmarked) [citronellal] | 0.75 micromoles NADH/min/mg protein | inhibition at 2000 µM (immobilised HLADH): 11% |
| COc1ccc(C=O)cc1 [p-anisaldehyde] | 1.55 micromoles NADH/min/mg protein | – |
| CC(C)c1ccc(C=O)cc1 [p-cuminaldehyde] | 0.94 micromoles NADH/min/mg protein | – |
| O=Cc1ccc(O)cc1 [p-hydroxybenzaldehyde] | 0.94 micromoles NADH/min/mg protein | – |
| O=Cc1ccc2c(c1)OCO2 [piperonaldehyde] | 1.47 micromoles NADH/min/mg protein | – |
| O=Cc1ccccc1O [salicylaldehyde] | 0.57 micromoles NADH/min/mg protein | – |
| O=C/C=C/c1ccccc1 [trans-cinnamaldehyde] | 1.36 micromoles NADH/min/mg protein | inhibition at 2000 µM (YADH [4]): 50% |
